Test results taken from PubChem BioAssay AID602215 (Sanford-Burnham Center for Chemical Genomics, 2012).
Active and inactive are the calls of the source.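 The calls were made as follows: active = IC50 of 20 µM or lower; inactive = the rest.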

Test system: HL-1 cardiomyocytes, H2O2 injury, ATP luminescence, 2 h
Experiment: H2O2-induced HL-1 cell death suppression – ATP luminescence, dose response (AID 602215);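 also: potency is for protection so actives raise ATP signal against peroxide damage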

Compound | IC50
COc1ccc(C(=O)O/N=C(/c2ccccc2)c2ccncc2)cc1OC | > 79 µM (inactive)
CC(C)(C)NC(=O)COC(=O)c1c2c(nc3ccccc13)CCC2 | 49.1 µM (inactive)
CNC(=O)c1ccc(-c2sc3nc(N4CCOCC4)c4c(c3c2N)CC(C)(C)OC4)o1 | 1.84 µM
COc1ccc(-c2cc(C(=O)Nc3ccccc3N3CCOCC3)c3ccccc3n2)cc1OC | 4.35 µM
O=C(Nc1ccccc1)c1nc[nH]c1C(=O)NCCNC(=O)c1[nH]cnc1C(=O)Nc1ccccc1 | > 79 µM (inactive)
CCOC(=O)C1CCN(c2cc3c(cc2NC(=O)c2ccc(OC)c(OC)c2)n(C)c(=O)n3C)CC1 | > 79 µM (inactive)
NC(=O)c1nsc(C(=O)N(c2ccccc2F)C(C(=O)NCc2ccccc2)c2ccc(O)cc2)c1N (stereo not drawn) | 15.8 µM
COc1cc(-c2cc(C(=O)Nc3ccccc3N3CCOCC3)c3ccccc3n2)cc(OC)c1OC | 4.24 µM
O=C(NCC(=O)N(Cc1cccs1)C(C(=O)NC1CCCCC1)c1ccco1)c1ccco1 (stereo not drawn) | > 79 µM (inactive)
CCOC(=O)c1c2c3c(cccc3n(C)c1=O)C(=O)c1ccccc1-2 | > 79 µM (inactive)
COc1ccc2c(c1OC)C(=O)N1c3ccccc3C(=O)N(c3ccccc3)C21 (stereo not drawn) | > 79 µM (inactive)
O=C(c1cc(=O)[nH]c2ccccc12)N1CCN(S(=O)(=O)c2ccc(Cl)cc2)CC1 | > 79 µM (inactive)
Cc1ccc(C(C(=O)NCc2ccccc2)N(Cc2ccco2)C(=O)c2snc(C(N)=O)c2N)o1 (stereo not drawn) | > 79 µM (inactive)
NC(=O)c1nsc(C(=O)N(c2ccccc2)C(C(=O)NC2CCCC2)c2ccc3ncccc3c2)c1N (stereo not drawn) | 5.51 µM
CCOc1ccc2nc(NC(=O)CN3CCC(n4nnc5cc(F)ccc54)CC3)sc2c1 | > 79 µM (inactive)
O=C(CN1CCN(c2ccccn2)CC1)Nc1ccc([N+](=O)[O-])cc1C(=O)Nc1ccccc1F | > 79 µM (inactive)
Cc1ccc(C=NNc2nc3c([nH]2)c(=O)n(C)c(=O)n3C)cc1 | > 79 µM (inactive)
Cn1c(=O)c2[nH]c(NN=Cc3cccc(Br)c3)nc2n(C)c1=O | > 79 µM (inactive)
COc1cc(-c2cc(NC(C)=O)c3ncc(-c4ccc(F)cc4)n3c2)cc(OC)c1OC | > 79 µM (inactive)
COc1cc(/C=C/c2nnc3c4ccccc4ncn23)cc(OC)c1OC | 13.8 µM
COc1ccc(C(C(=O)NC2CCCC2)N(C(=O)c2snc(C(N)=O)c2N)c2cccc(O)c2)cc1 (stereo not drawn) | 23.9 µM (inactive)
COc1cc(-c2cc(C(=O)OCC(=O)NC3CC3)c3ccccc3n2)cc(OC)c1OC | 12.7 µM

Compound | IC50
Cc1cc(C)c2c(N)c(C(=O)N/N=C/c3cccnc3)sc2n1 | > 79 µM (inactive)
COc1ccc(N(CC(=O)Nc2cccc(C(C)=O)c2)S(=O)(=O)c2ccc(NC(C)=O)cc2)cc1 | > 79 µM (inactive)
O=C(CNC(=O)c1nc[nH]c1C(=O)NCC(=O)OCc1ccccc1)OCc1ccccc1 | > 79 µM (inactive)
COc1cccc(-c2cnc3c(NC=O)cc(-c4ccc(O)c(OC)c4)cn23)c1 | > 79 µM (inactive)
COc1cccc(-c2cnc3c(NC=O)cc(-c4cc(C)c(O)c(C)c4)cn23)c1 | 4.55 µM
Cc1[nH]c2ccccc2c1/C=N/NC(=O)c1cc(-c2cccs2)[nH]n1 | > 79 µM (inactive)
CC(C)(C)OC(=O)C[C@@H]1C/C=C\C[C@@H](CC(=O)N[C@@H](CO)Cc2ccccc2)C(=O)NC[C@@H](c2ccccc2)OC1=O | > 79 µM (inactive)
O=C(COC(=O)c1ccccc1C(=O)OCC(=O)NCCc1c[nH]c2ccccc12)NCCc1c[nH]c2ccccc12 | > 79 µM (inactive)
COc1ccc(OC)c(/C=N/NC(=O)c2cc3c(OC)c(OC)ccc3[nH]2)c1 | 1.82 µM
COc1ccccc1NC(=O)c1cc(-c2ccc(OC)c(OC)c2)nc2ccccc12 | > 79 µM (inactive)
COc1ccc(CCNC(=O)C(=O)NCC2CCCN2S(=O)(=O)c2ccccc2)cc1OC (stereo not drawn) | > 79 µM (inactive)
COc1ccc(-c2cc(-c3nnc(COC(=O)c4ccncc4)o3)c3ccccc3n2)cc1OC | > 79 µM (inactive)
COc1ccc(COc2cc(-c3cccc(OC)c3)nc3ccc(NC(=O)c4cccnc4)cc23)cc1 | 4.53 µM
COc1cc2[nH]c(=O)n3nc(-c4ccccc4)nc3c2cc1OC | > 79 µM (inactive)
COc1nc(N/N=C/c2cc3c(cc2Br)OCO3)nc(N2CCOCC2)n1 | > 79 µM (inactive)
COc1ccc(-c2csc(NC(=O)c3ccc(OCC(=O)N4CCOCC4)c(OC)c3)n2)cc1OC | 12.3 µM
CC(=O)c1ccc(-c2ccc(C(=O)Nc3nc(-c4ccccn4)cs3)o2)cc1 | > 79 µM (inactive)
Cc1ccc(-c2csc(N3CCC[C@@H]3C(=O)NCCn3c(-c4ccncc4)nc4ccccc43)n2)cc1 | > 79 µM (inactive)
COc1cccc(Nc2nc3ccccc3n3cnnc23)c1 | > 79 µM (inactive)
CCOC(=O)C1CCN(c2cc3c(cc2NC(=O)c2ccccc2)n(C)c(=O)n3C)CC1 | > 79 µM (inactive)
CN(C(=O)c1sc2nc(N3CCOCC3)c3c(c2c1N)CCCC3)c1ccccc1 | 8.63 µM
COc1ccc(C(=O)Nc2cccc(NC(=O)c3ccc(OC)c(OC)c3)n2)cc1OC | > 79 µM (inactive)

Compound | IC50
COc1cccc(-c2cnc3c(NC=O)cc(-c4cc(OC)c(OC)c(OC)c4)cn23)c1 | > 79 µM (inactive)
CC(=O)Nc1ccc(S(=O)(=O)N(Cc2cccnc2)Cc2cc3ccccc3[nH]c2=O)cc1 | 11.7 µM
Nc1c(C(=O)N/N=C/c2cccnc2)oc2nc(-c3ccco3)cc(-c3ccco3)c12 | > 79 µM (inactive)
O=C(c1ccc(-c2nc3ccccc3s2)o1)N1CCN(c2ccccc2O)CC1 | > 79 µM (inactive)
COc1cc(-c2cc(NC=O)c3ncc(-c4ccc(C(C)=O)cc4)n3c2)cc(OC)c1OC | 4.1 µM
COc1ccc(-c2cc3nc(-c4ccccc4)cc(N4CCN(C(C)=O)CC4)n3n2)cc1 | 1.59 µM
COc1cc(NC(=O)c2cc3nc(-c4ccccc4)cc(-c4ccccc4)n3n2)cc(OC)c1OC | 8.71 µM
C=CCOC(=O)C1=C[C@H](c2cn(C(C)=O)c3ccccc23)C[C@H](OCc2ccc(CO)cc2)O1 | > 79 µM (inactive)
CCOc1cc(/C=C/c2ccc3cccc([N+](=O)[O-])c3n2)ccc1OCC(=O)N(C)C | > 79 µM (inactive)
COc1ccc(-c2cnc3c(NC=O)cc(-c4cccc(NS(C)(=O)=O)c4)cn23)cc1OC | 6.15 µM
COC(=O)c1[nH]c2ccccc2c1NC(=O)CNC1CCCCC1 | > 79 µM (inactive)
Cc1cc(N)n(-c2nc(-c3cccnc3)nc3ccccc23)n1 | > 79 µM (inactive)
C=CCn1cnc2c(c1=O)c1nc3ccccc3nc1n2/N=C/c1cc(OC)c(OC)c(OC)c1 | > 79 µM (inactive)
O=C1OCCN1C(=O)[C@H]1[C@H](c2ccc([N+](=O)[O-])cc2)C(c2ccc(F)cc2)=NN1c1ccc(Br)cc1 | > 79 µM (inactive)
CC(=O)c1cccc(-c2cnc3c(NC=O)cc(-c4ccccc4F)cn23)c1 | 3.28 µM
CCOc1cc(-c2cc(-c3ccc(N)cc3)nc(N)c2C#N)ccc1O | > 79 µM (inactive)
NC(=O)c1nsc(C(=O)N(c2ccccc2)C(C(=O)NCc2ccc(F)cc2)c2ccc(O)cc2)c1N (stereo not drawn) | > 79 µM (inactive)
O=C(CNC(=O)c1[nH]cnc1C(=O)NC(c1ccccc1)c1ccccc1)OCc1ccccc1 | 69.7 µM (inactive)
COCCN1Cc2cccc(C(=O)Nc3cccc(-c4nc5ccccc5[nH]4)c3)c2C1=O | > 79 µM (inactive)
O=C(Nc1ccccc1)c1nc[nH]c1C(=O)NCCCCCCNC(=O)c1[nH]cnc1C(=O)Nc1ccccc1 | 3.45 µM
CCOc1cc(/C=C(\C#N)C(=O)Nc2ccc(S(N)(=O)=O)cc2)ccc1OCCN1CCOCC1 | > 79 µM (inactive)
CCn1c(O)c(/C=N/N=C/c2ccccc2)c2ccc(C3=NNC(=O)CC3)cc21 | > 79 µM (inactive)

Compound | IC50
CCc1nc2ccc(C(=O)Nc3cc(-c4ccccc4)ccc3OC)cn2c1N(C)Cc1nccs1 | > 79 µM (inactive)
COc1ccc(-c2cc(C(=O)N(C)Cc3nc4ccccc4c(=O)[nH]3)c3ccccc3n2)cc1OC | 21.3 µM (inactive)
CC(=O)c1cccc(Nc2nc3ccccc3n3cnnc23)c1 | > 79 µM (inactive)
COc1ccccc1OP(=O)(Nc1cccnc1)Oc1ccccc1OC | > 79 µM (inactive)
CS(=O)(=O)c1ccc(-c2cnc3c(NC=O)cc(-c4ccsc4)cn23)cc1 | 8.73 µM
COc1ccccc1CN(C(=O)CNC(=O)c1ccco1)C(C(=O)NCC1CCCO1)c1ccccc1 (stereo not drawn) | > 79 µM (inactive)
CCCNC(=O)c1ccc(N2CCC3(CC2)CC(c2ccccc2)=NO3)c(NC(=O)c2ccco2)c1 | 3.22 µM
CC1Nc2ncnc(N3CCN(c4ccccc4)CC3)c2N(Cc2ccc(Cl)cc2)C1=O (stereo not drawn) | > 79 µM (inactive)
CCOc1ccc(-n2cc(-c3ccccc3)c3c(N4CCOCC4)ncnc32)cc1 | 24 µM (inactive)
O=S(=O)(c1ccccc1)N1CCN(c2nc(-c3cccnc3)nc3ccccc23)CC1 | > 79 µM (inactive)
COc1ccc(C(C(=O)NCc2ccccc2)N(Cc2ccco2)C(=O)c2snc(C(N)=O)c2N)cc1 (stereo not drawn) | 44.1 µM (inactive)
CN(C)S(=O)(=O)c1ccc2[nH]cc(/C=C/c3nc4ccccc4c(=O)n3-c3ccccc3)c2c1 | > 79 µM (inactive)
COc1ccc(-c2cc(NC=O)c3ncc(-c4ccc(C(C)=O)cc4)n3c2)cn1 | > 79 µM (inactive)
COc1cc(-c2cc3nc(NCCOc4ccccc4)ccn3n2)cc(OC)c1OC | > 79 µM (inactive)
Cc1ccc(NC(=O)c2nc[nH]c2C(=O)NCCCNC(=O)c2[nH]cnc2C(=O)Nc2ccc(C)cc2)cc1 | > 79 µM (inactive)
Cc1ccc(-n2cc(-c3ccccc3)c3c(N4CCOCC4)ncnc32)cc1 | > 79 µM (inactive)
COc1ccc(-c2cc(-c3nnc(COC(=O)C4CC4C)o3)c3ccccc3n2)cc1OC (stereo not drawn) | 3.49 µM
CCOC(=O)C(Cc1ccc(NC(=O)/C(=C/c2ccc(OC(C)=O)cc2)NC(C)=O)cc1)N1C(=O)c2ccccc2C1=O (stereo not drawn) | 32.5 µM (inactive)
COc1cc(-c2cc3nc(NCCc4ccc(S(N)(=O)=O)cc4)ccn3n2)cc(OC)c1OC | 15.1 µM
CCOc1ccccc1NC(=O)c1oc2ccccc2c1NC(=O)C1CCCO1 (stereo not drawn) | > 79 µM (inactive)
COc1ccc(Nc2nnc(SCc3cc(=O)n4ccsc4n3)s2)cc1 | > 79 µM (inactive)
CCN(CC)C(=O)c1[nH]cnc1C(=O)NCC(=O)OCc1ccccc1 | > 79 µM (inactive)
